How the values were obtained:
[1] = target: Pyruvate kinase PKLR (Rattus norvegicus) (UniProt P12928); assay: Relative inhibitory potency as ratio of kidney and liver pyruvate kinases
[2] = target: Pyruvate kinase PKM (Rattus norvegicus) (UniProt P11980); assay: Ratio of Km(ADP)/Ki or Km for rat muscle pyruvate kinase
[3] = species on record: Rattus norvegicus; assay: Relative half maximal velocity of Pyruvate kinase to Phosphoenolpyruvate was determined
[4] = species on record: Rattus norvegicus; assay: Relative inhibitory potency as ratio of muscle and liver pyruvate kinases
[5] = target: Pyruvate kinase PKLR (Rattus norvegicus) (UniProt P12928); assay: Ratio of Km(ADP)/Ki or Km for rat liver pyruvate kinase
[6] = target: Pyruvate kinase PKM (Rattus norvegicus) (UniProt P11980); assay: (§1) Relative half maximal velocity of Pyruvate kinase and Phosphoenolpyruvate
[7] = target: Pyruvate kinase PKLR (Rattus norvegicus) (UniProt P12928); assay: as §1
[8] = target: Pyruvate kinase PKM (Rattus norvegicus) (UniProt P11980); assay: Ratio of Km(ADP)/Ki or Km for rat muscle pyruvatre kinase; (inhibitory potency at 2.35 mM)
[9] = target: Pyruvate kinase PKM (Rattus norvegicus) (UniProt P11980); assay: as §1; remark: listed apart in the source
[10] = system: CC(=O)N(C)CCCCN(C)c1ncnc2c1ncn2[C@@H]1O[C@H](COP(=O)(O)OP(=O)(O)O)[C@@H](O)[C@H]1O; assay: (§2) Michaelis-Menten constant for inhibition of pyruvate kinase obtained from rat muscle (PK-M) was determined using ADP as competitive inhibitor
[11] = system: C=CC[C@]1(COP(=O)(O)OP(=O)(O)O)OC(n2cnc3c(N)ncnc32)[C@H](O)[C@@H]1O; assay: as §2
[12] = system: Nc1nc(N)c2ncn(C3O[C@H](COP(=O)(O)OP(=O)(O)O)[C@@H](O)[C@H]3O)c2n1; assay: as §2
[13] = system: C[C@H](OP(=O)(O)OP(=O)(O)O)[C@H]1OC(n2cnc3c(N)ncnc32)[C@H](O)[C@@H]1O; assay: as §2
[14] = system: Nc1ncnc2c1ncn2[C@@H]1O[C@H](COP(=O)(O)OP(=O)(O)O)[C@@H](O)[C@H]1O; assay: as §2
[15] = system: CNc1nc2c(N)ncnc2n1C1O[C@H](COP(=O)(O)OP(=O)(O)O)[C@@H](O)[C@H]1O; assay: as §2
[16] = system: Nc1ncnc2c1nc(Br)n2[C@@H]1O[C@H](COP(=O)(O)OP(=O)(O)O)[C@@H](O)[C@H]1O; assay: as §2
[17] = system: CNc1nc(N)c2ncn(C3O[C@H](COP(=O)(O)OP(=O)(O)O)[C@@H](O)[C@H]3O)c2n1; assay: as §2
[18] = system: CO[C@@H]1[C@H](O)[C@@H](COP(=O)(O)OP(=O)(O)O)O[C@H]1n1cnc2c(N)ncnc21; assay: as §2
[19] = system: CSc1nc(N)c2ncn([C@@H]3O[C@H](COP(=O)(O)OP(=O)(O)O)[C@@H](O)[C@H]3O)c2n1; assay: as §2
[20] = system: CC(=O)N(C)CCCCN(C)c1ncnc2c1ncn2[C@@H]1O[C@H](COP(=O)(O)OP(=O)(O)O)[C@@H](O)[C@H]1O; assay: (§3) Michaelis-Menten constant for inhibition of pyruvate kinase obtained from rat liver (PK-L) was determined using ADP as competitive inhibitor
[21] = system: C=CC[C@]1(COP(=O)(O)OP(=O)(O)O)OC(n2cnc3c(N)ncnc32)[C@H](O)[C@@H]1O; assay: as §3
[22] = system: Nc1nc(N)c2ncn(C3O[C@H](COP(=O)(O)OP(=O)(O)O)[C@@H](O)[C@H]3O)c2n1; assay: as §3
[23] = system: C[C@H](OP(=O)(O)OP(=O)(O)O)[C@H]1OC(n2cnc3c(N)ncnc32)[C@H](O)[C@@H]1O; assay: as §3
[24] = system: Nc1ncnc2c1ncn2[C@@H]1O[C@H](COP(=O)(O)OP(=O)(O)O)[C@@H](O)[C@H]1O; assay: as §3
[25] = system: CNc1nc2c(N)ncnc2n1C1O[C@H](COP(=O)(O)OP(=O)(O)O)[C@@H](O)[C@H]1O; assay: as §3
[26] = system: Nc1ncnc2c1nc(Br)n2[C@@H]1O[C@H](COP(=O)(O)OP(=O)(O)O)[C@@H](O)[C@H]1O; assay: as §3
[27] = system: CNc1nc(N)c2ncn(C3O[C@H](COP(=O)(O)OP(=O)(O)O)[C@@H](O)[C@H]3O)c2n1; assay: as §3
[28] = system: CO[C@@H]1[C@H](O)[C@@H](COP(=O)(O)OP(=O)(O)O)O[C@H]1n1cnc2c(N)ncnc21; assay: as §3
[29] = system: CSc1nc(N)c2ncn([C@@H]3O[C@H](COP(=O)(O)OP(=O)(O)O)[C@@H](O)[C@H]3O)c2n1; assay: as §3

Sequence of Pyruvate kinase PKLR (Rattus norvegicus) (P12928 whole entry): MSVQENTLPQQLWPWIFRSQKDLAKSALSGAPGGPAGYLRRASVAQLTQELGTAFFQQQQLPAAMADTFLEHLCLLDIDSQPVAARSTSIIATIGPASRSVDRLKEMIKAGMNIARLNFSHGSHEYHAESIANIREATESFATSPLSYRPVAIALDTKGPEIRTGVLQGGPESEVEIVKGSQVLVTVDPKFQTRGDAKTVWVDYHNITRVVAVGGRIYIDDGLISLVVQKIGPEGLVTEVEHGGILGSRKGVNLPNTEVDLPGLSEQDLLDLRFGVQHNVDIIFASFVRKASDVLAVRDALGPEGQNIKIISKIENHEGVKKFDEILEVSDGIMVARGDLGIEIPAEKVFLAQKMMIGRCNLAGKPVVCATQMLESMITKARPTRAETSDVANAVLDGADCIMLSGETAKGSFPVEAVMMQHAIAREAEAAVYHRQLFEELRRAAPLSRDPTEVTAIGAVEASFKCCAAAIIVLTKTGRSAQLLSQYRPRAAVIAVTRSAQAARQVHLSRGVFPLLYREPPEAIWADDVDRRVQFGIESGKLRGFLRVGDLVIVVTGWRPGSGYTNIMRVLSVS
Sequence of Pyruvate kinase PKLR (Rattus norvegicus), P12928 (P12928 whole entry): as above
Sequence of Pyruvate kinase PKM (Rattus norvegicus) (P11980 whole entry): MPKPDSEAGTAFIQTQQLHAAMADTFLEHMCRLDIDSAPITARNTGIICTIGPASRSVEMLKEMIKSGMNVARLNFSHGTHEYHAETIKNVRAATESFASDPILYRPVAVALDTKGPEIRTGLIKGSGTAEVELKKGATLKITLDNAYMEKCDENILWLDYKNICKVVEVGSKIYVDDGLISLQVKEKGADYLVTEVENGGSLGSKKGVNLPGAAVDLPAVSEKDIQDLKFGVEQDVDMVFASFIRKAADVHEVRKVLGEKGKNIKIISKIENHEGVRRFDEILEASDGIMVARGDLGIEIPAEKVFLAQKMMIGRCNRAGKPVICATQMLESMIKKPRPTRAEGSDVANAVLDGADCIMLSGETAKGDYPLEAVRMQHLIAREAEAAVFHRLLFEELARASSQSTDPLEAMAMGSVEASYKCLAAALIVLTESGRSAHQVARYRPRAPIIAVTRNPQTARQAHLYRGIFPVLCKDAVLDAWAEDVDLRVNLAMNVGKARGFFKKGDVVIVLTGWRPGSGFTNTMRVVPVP
Sequence of Pyruvate kinase PKM (Rattus norvegicus), P11980 (P11980 whole entry): as above

Compound	Relative inhibitory potency [1]	Inhibitory potency [2]	Relative Vmax [3]	Relative inhibitory potency [4]	Inhibitory potency [5]	Relative Vmax [6]	Relative Vmax [7]	further results
C[C@H](OP(=O)(O)OP(=O)(O)O)[C@H]1OC(n2cnc3c(N)ncnc32)[C@H](O)[C@@H]1O (some centres undefined)	0.74	0.19	15	0.83	0.23	15	26	–
CCCNc1nc2c(N)ncnc2n1C1O[C@H](COP(=O)(O)OP(=O)(O)O)[C@@H](O)[C@H]1O (some centres undefined)	–	–	0	3.1	0.19	0	–	Inhibitory potency [8]: 0.58
CC1O[C@@H]2[C@H](O1)[C@@H](COP(=O)(O)OP(=O)(O)O)O[C@H]2n1cnc2c(N)ncnc21 (some centres undefined)	–	0.325	–	2.3	0.14	0	–	Relative Vmax [9]: 0
Pyruvate kinase PKM (Rattus norvegicus), P11980	–	–	–	–	–	–	–	Km [10]: 3600 µM; Km [11]: 1300 µM; Km [12]: 260 µM; Km [13]: 2700 µM; Km [14]: 520 µM; Km [15]: 560 µM; Km [16]: 2900 µM; Km [17]: 190 µM; Km [18]: 700 µM; Km [19]: 110 µM
Pyruvate kinase PKLR (Rattus norvegicus), P12928	–	–	–	–	–	–	–	Km [20]: 700 µM; Km [21]: 530 µM; Km [22]: 90 µM; Km [23]: 1300 µM; Km [24]: 300 µM; Km [25]: 160 µM; Km [26]: 2300 µM; Km [27]: 120 µM; Km [28]: 350 µM; Km [29]: 61 µM
CC(=O)N(C)CCCCN(C)c1ncnc2c1ncn2[C@@H]1O[C@H](COP(=O)(O)OP(=O)(O)O)[C@@H](O)[C@H]1O	0.67	0.14	–	0.33	0.43	–	–	–
CCSc1nc2c(N)ncnc2n1C1O[C@H](COP(=O)(O)OP(=O)(O)O)[C@@H](O)[C@H]1O (some centres undefined)	3.6	0.14	0	3.9	0.036	0	0	–
C=CC[C@]1(COP(=O)(O)OP(=O)(O)O)OC(n2cnc3c(N)ncnc32)[C@H](O)[C@@H]1O (some centres undefined)	–	–	11	–	–	7	52	–
C[C@@H](OP(=O)(O)OP(=O)(O)O)[C@H]1OC(n2cnc3c(N)ncnc32)[C@H](O)[C@@H]1O (some centres undefined)	1.1	0.12	> 0	2.1	0.056	> 0	> 0	–

Further lines, with some results ahead:

Relative inhibitory potency [1]	Inhibitory potency [2]	Relative Vmax [3]	Relative inhibitory potency [4]	Inhibitory potency [5]	Relative Vmax [6]	Relative Vmax [7]	Compound	further results
0.61	2	90	0.61	3.3	77	95	Nc1nc(N)c2ncn(C3O[C@H](COP(=O)(O)OP(=O)(O)O)[C@@H](O)[C@H]3O)c2n1 (some centres undefined)	–
–	–	100	–	–	100	100	Nc1ncnc2c1ncn2[C@@H]1O[C@H](COP(=O)(O)OP(=O)(O)O)[C@@H](O)[C@H]1O	–
1.04	0.74	94	0.86	0.86	90	100	CO[C@@H]1[C@H](O)[C@@H](COP(=O)(O)OP(=O)(O)O)O[C@H]1n1cnc2c(N)ncnc21	–
1.12	4.7	67	0.94	5	77	72	CSc1nc(N)c2ncn([C@@H]3O[C@H](COP(=O)(O)OP(=O)(O)O)[C@@H](O)[C@H]3O)c2n1	–
1.2	1	0.7	7.1	0.14	< 1	< 1	CCNc1nc2c(N)ncnc2n1C1O[C@H](COP(=O)(O)OP(=O)(O)O)[C@@H](O)[C@H]1O (some centres undefined)	–
1.4	2.7	85	1.1	2.5	77	86	CNc1nc(N)c2ncn(C3O[C@H](COP(=O)(O)OP(=O)(O)O)[C@@H](O)[C@H]3O)c2n1 (some centres undefined)	–
7.6	0.056	> 0	6	0.0094	> 0	> 0	CO[C@H]1[C@@H](O)[C@H](n2cnc3c(N)ncnc32)O[C@@H]1COP(=O)(O)OP(=O)(O)O	–
0.45	0.93	49	0.49	1.9	55	40	CNc1nc2c(N)ncnc2n1C1O[C@H](COP(=O)(O)OP(=O)(O)O)[C@@H](O)[C@H]1O (some centres undefined)	–
1.3	0.18	–	1.4	0.13	6	14	Nc1ncnc2c1nc(Br)n2[C@@H]1O[C@H](COP(=O)(O)OP(=O)(O)O)[C@@H](O)[C@H]1O	Relative Vmax [9]: 6
2.5	0.12	0	3	0.04	0	0	CSc1nc2c(N)ncnc2n1C1O[C@H](COP(=O)(O)OP(=O)(O)O)[C@@H](O)[C@H]1O (some centres undefined)	–

From ChEMBL document CHEMBL1121950, “Species- or isozyme-specific enzyme inhibitors. 9. Selective effects in inhibitions of rat pyruvate kinase isozymes by adenosine 5'-diphosphate derivatives” (J Med Chem, 1982)
